Test results as given in patent US10968260B2, “Curcumin-peptide conjugates and formulations thereof” (HAUS BIOCEUTICALS, INC., priority 2014, dated 2021).

How the values were obtained:
[1] = parameters: species or system mice; conditions: mouse, in vivo
Protocol: Mice weighed ˜25 g each. Blood was drawn every 30 minutes for 180 total minutes.

[2] = test system: advanced Alzheimer's disease; assay: Clinical case study: Alzheimer's disease (Example 5); assay type: in vivo, human; conditions: Case 20, 1.2 g curcumin bid, after 30 days
Text: A person was presented with advanced Alzheimer's disease. Prior to dosing, they failed all short term memory questions on a test. […] They have continued to have lasting benefit from the therapy.

## COc1cc(C=CC(=O)CC(=O)C=Cc2ccc(O)c(OC)c2)ccc1O [curcumin, 1,7-bis[4-hydroxy-3-methoxyphenyl]-1,6-heptadiene-3,5-dione]
[1]
  absorbability / bioavailability: very poor absorbability
[2]
  short term memory questions on a test, advanced Alzheimer's disease: passed all short term memory questions
